Laboratory results as given in publication PMC6136390, “Coptisine-induced inhibition of Helicobacter pylori: elucidation of specific mechanisms by probing urease active site and its maturation process” (Journal of Enzyme Inhibition and Medicinal Chemistry, 2018).
Like-named read-outs stand apart in the source and are kept apart here.

Legend:
H. pylori urease (HPU) = target: T1, H. pylori urease (HPU) (Helicobacter pylori, UniProt P69996); assay: Urease inhibition assay in vitro (modified Berthelot method); format: biochemical
T1 construct: Crude HPU was obtained according to the method described by Matsubara et al; endogenous in cells; host or cells: cultured Helicobacter pylori (strain not specified)
T1 sequence (P69996 whole entry): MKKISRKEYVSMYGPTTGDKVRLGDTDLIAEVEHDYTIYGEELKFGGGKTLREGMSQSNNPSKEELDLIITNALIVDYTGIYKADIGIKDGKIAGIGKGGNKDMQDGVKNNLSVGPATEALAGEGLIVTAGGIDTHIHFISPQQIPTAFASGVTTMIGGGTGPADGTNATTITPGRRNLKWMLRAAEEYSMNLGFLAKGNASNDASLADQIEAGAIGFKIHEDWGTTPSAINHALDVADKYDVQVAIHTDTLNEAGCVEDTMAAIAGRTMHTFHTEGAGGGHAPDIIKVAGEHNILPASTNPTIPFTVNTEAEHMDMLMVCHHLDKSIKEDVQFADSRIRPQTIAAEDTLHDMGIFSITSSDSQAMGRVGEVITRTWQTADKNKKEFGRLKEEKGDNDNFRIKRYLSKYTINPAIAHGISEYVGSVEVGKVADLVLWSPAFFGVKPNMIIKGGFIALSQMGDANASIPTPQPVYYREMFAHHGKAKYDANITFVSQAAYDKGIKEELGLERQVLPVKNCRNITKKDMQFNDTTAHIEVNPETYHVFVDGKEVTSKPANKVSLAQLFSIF
T1 sequence (P14916 whole entry, further chain): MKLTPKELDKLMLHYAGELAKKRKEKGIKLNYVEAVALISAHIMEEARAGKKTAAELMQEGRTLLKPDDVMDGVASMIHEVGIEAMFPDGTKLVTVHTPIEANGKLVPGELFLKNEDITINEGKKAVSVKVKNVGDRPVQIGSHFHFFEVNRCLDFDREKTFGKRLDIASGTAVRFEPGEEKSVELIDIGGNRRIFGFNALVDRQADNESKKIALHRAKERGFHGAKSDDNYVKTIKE
Procedure: (§1) All strains were cultured in Columbia agar base containing 7% sheep blood at 37 °C in a micro-aerophilic environment (5% O2, 10% CO2, and 85% N2). After 3 days, H. pylori was scraped and suspended in phosphate buffered saline (PBS). Turbidimetry was employed to adjust the concentrations of different H. pylori strains (turbidity equivalent to 1.0 McFarland standard). Crude HPU was obtained according to the method described by Matsubara et al.[42]
This assay was performed using the modified Berthelot method (phenol-hypochlorite) in 96 well plates. At the beginning of each reaction, different concentrations of urease solution and 150 mM urea as a substrate were mixed in 20 mM HEPES buffer (pH 7.5) at 37 °C. After a 20-min reaction, urease activity was tested by measuring the concentration of ammonia produced by the reaction at 595 nm using the microplate reader (Thermo Fisher Multiskan FC, Instruments, Inc., USA) at ambient temperature. […] One unit (U) of urease activity was defined as the amount of urease required to catalyse 1 μmol urea per min. […]
Coptisine’s ability to inhibit urease activity was determined by measuring amounts of ammonia produced using the modified Berthelot method described above. […] Residual activity (RA %) for each assay was calculated using the following equation: RA % = (activity with inhibitors/activity without inhibitors) × 100%. […]

H. pylori strains = assay: Minimal bactericidal concentration assay (broth dilution); format: cell-based, Helicobacter pylori
Source text: Fourteen H. pylori strains were used in this study. NCTC 11637 and NCTC 26695 strains were purchased from American Type Culture Collection. Sydney Strain-1 (SS1) was kindly provided by Prof. Richard Ferrero of Monash University, Australia. Clinical isolate ICDC 111001 was provided by Prof. Zhang Jian-zhong of the Chinese Center for Disease Control and Prevention, China. Ten clinical isolates (Hp1868, Hp1869, Hp1870, Hp1871, Hp1872, Hp1873, Hp1874, Hp1875, Hp1876, and Hp1877) were obtained from Renji Hospital, Shanghai Jiaotong University.
as §1
The broth dilution method was used to determine the minimal bactericidal concentrations (MBCs) of coptisine (25, 37.5, 50, 62.5, 75, 100, and 125 μg/mL) against three H. pylori standard strains (SS1, NCTC 11637, and NCTC 26695) and eleven clinical isolates (ICDC 111001, HP 1868, HP 1869, HP 1870, HP 1871 and HP 1872, HP 1873, HP 1874, HP 1875, HP 1876, and HP 1877). In brief, H. pylori suspension (McFarland = 1.0) was exposed to DMSO (control) and coptisine at 2–4 times MIC in BHI with 10% FBS. After shaking at 120 rpm in the tri-gas incubator for 6 h, 100 μL samples were removed and cultured in Columbia blood agar base[43]. MBC was defined as a 99.9% decrease in viability compared with the control. The experiment was repeated twice.

## c1c2c(cc3c1OCO3)-c1cc3ccc4c(c3c[n+]1CC2)OCO4 [Coptisine]
H. pylori urease (HPU)
  IC50: 1780 ± 60 µM
H. pylori strains; Helicobacter pylori, NCTC11637, strain NCTC 11637, pH = 7.2, read-out: MBC
  MBC: 62.5 µg/mL
H. pylori strains; Helicobacter pylori, NCTC26695, strain NCTC 26695, pH = 7.2, read-out: MBC
  MBC: 37.5 µg/mL
H. pylori strains; Helicobacter pylori, clinical isolate HP 1868, pH = 7.2, read-out: MBC
  MBC: 62.5 µg/mL
H. pylori strains; Helicobacter pylori, clinical isolate HP 1869 (MET resistance), pH = 7.2, read-out: MBC
  MBC: 62.5 µg/mL
H. pylori strains; Helicobacter pylori, clinical isolate HP 1870 (CLR and MET resistance), pH = 7.2, read-out: MBC
  MBC: 37.5 µg/mL
H. pylori strains; Helicobacter pylori, clinical isolate HP 1871 (MET resistance), pH = 7.2, read-out: MBC
  MBC: 37.5 µg/mL
H. pylori strains; Helicobacter pylori, clinical isolate HP 1872, pH = 7.2, read-out: MBC
  MBC: 37.5 µg/mL
H. pylori strains; Helicobacter pylori, clinical isolate HP 1873, pH = 7.2, read-out: MBC
  MBC: 75 µg/mL
H. pylori strains; Helicobacter pylori, clinical isolate HP 1874, pH = 7.2, read-out: MBC
  MBC: 100 µg/mL
H. pylori strains; Helicobacter pylori, clinical isolate HP 1875, pH = 7.2, read-out: MBC
  MBC: 75 µg/mL
H. pylori strains; Helicobacter pylori, clinical isolate HP 1876 (CLR and MET resistance), pH = 7.2, read-out: MBC
  MBC: 75 µg/mL
H. pylori strains; Helicobacter pylori, clinical isolate HP 1877, pH = 7.2, read-out: MBC
  MBC: 125 µg/mL
H. pylori strains; Helicobacter pylori, clinical isolate ICDC 111001, pH = 7.2, read-out: MBC
  MBC: 50 µg/mL
H. pylori strains; Helicobacter pylori, strain SS1, pH = 7.2, read-out: MBC
  MBC: 37.5 µg/mL
H. pylori strains; clinical isolate HP 1868
  MBC/MIC: 1.25
H. pylori strains; clinical isolate HP 1869
  MBC/MIC: 1.25
H. pylori strains; clinical isolate HP 1869 (MET resistance), pH = 7.2
  MBC: 62.5 µg/mL
H. pylori strains; clinical isolate HP 1870
  MBC/MIC: 1.5
H. pylori strains; clinical isolate HP 1870 (CLR and MET resistance), pH = 7.2
  MBC: 37.5 µg/mL
H. pylori strains; clinical isolate HP 1871
  MBC/MIC: 1.5
H. pylori strains; clinical isolate HP 1871 (MET resistance), pH = 7.2
  MBC: 37.5 µg/mL
H. pylori strains; clinical isolate HP 1872
  MBC/MIC: 1.5
H. pylori strains; clinical isolate HP 1873
  MBC/MIC: 1.5
H. pylori strains; clinical isolate HP 1874
  MBC/MIC: 2
H. pylori strains; clinical isolate HP 1875
  MBC/MIC: 1.5
H. pylori strains; clinical isolate HP 1876
  MBC/MIC: 1.5
H. pylori strains; clinical isolate HP 1876 (CLR and MET resistance), pH = 7.2
  MBC: 75 µg/mL
H. pylori strains; clinical isolate HP 1877
  MBC/MIC: 2.5
H. pylori strains; clinical isolate ICDC 111001
  MBC/MIC: 2
H. pylori strains; strain NCTC 11637
  MBC/MIC: 2.5
H. pylori strains; strain NCTC 26695
  MBC/MIC: 1.5
H. pylori strains; strain SS1
  MBC/MIC: 1.5
